Results as given in US20120135965A1, “AMORPHOUS FOSAMPRENAVIR CALCIUM” (RANBAXY LABORATORIES LIMITED, priority 2009, published 2012).
Where two headings read alike, the source gives them in different places. Marks after values point to notes of the source that are not given here.

What was measured:
[1] = Aqueous solubility test according to United States Pharmacopeia 32; format: physicochemical; settings: for Solubility (mg/ml of solvent) / Parts of solvent required per g of solute / solubility: aqueous; for Solubility (mg/ml of solvent) / solubility: by qualitative observation; for solubility: thermodynamic from solid, read-out: Solubility (mg/ml of solvent)
[2] = Hygroscopicity according to European Pharmacopoeia 6.0; format: physicochemical; settings: for Hygroscopicity, % increase in mass: 25 ± 1° C./80 ± 2% RH for 24 h, monocalcium salt
[3] = Storage stability of the amorphous form followed by XRPD; format: physicochemical; settings: 40±1° C. at 75±2% RH, two months
Description: The XRPD of the samples were determined by using Panalytical X'Pert Pro X-Ray Powder Diffractometer in the range 3 to 40 degree 2 theta with a step size of 0.02 and under tube voltage and current of 45 Kv and 40 mA respectively. Copper radiation of wavelength 1.54 angstrom and Xceletor detector were used.
Fosamprenavir calcium (5 g) was dissolved in methanol (125 ml) at 25° to 30° C. The solution was filtered and fed to a spray dryer (BUCHI, B-290) at feed pump RPM of 1% to 3%. The following parameters were controlled in the spray drying process: • Nozzle Diameter: 0.7 mm • Carrier gas: Nitrogen at 2.0 to 3.0 kg/cm^2 • Air inlet temperature: 80° to 85° C. • Outlet temperature: 35° to 55° C. • Type of atomizer: Two fluid nozzle • The solvent was evaporated at 80° to 85° C. by spray drying. The solid so obtained was collected from the spray dryer and further dried at 55° to 60° C. under vacuum (10 to 15 mmHg) for 10 to 12 hours to obtain the title compound having an XRPD pattern as depicted in FIG. 2.

[4] = Antimicrob. Agents Chemother., 2004, 48(3), 791-798; cited from earlier work

## CC(C)CN(C[C@@H](OP(=O)([O-])[O-])[C@H](Cc1ccccc1)NC(=O)O[C@H]1CCOC1)S(=O)(=O)c1ccc(N)cc1.[Ca+2] [Crystalline form I of fosamprenavir calcium] [(3S)-tetrahydrofuran-3-yl (1S ,2R)-3-[[(4-aminophenyl)sulfonyl](isobutyl)amino]-1-benzyl-2-(phosphonooxy)propylcarbamate monocalcium salt, reference compound]
[1]; pH 1.47
  Solubility (mg/ml of solvent): 0.5 mg/mL
[1]; pH 1.47, monocalcium salt
  Parts of solvent required per g of solute: 2100 parts
[1]; pH 3.27, monocalcium salt
  Solubility (mg/ml of solvent): 2.5 mg/mL
  Parts of solvent required per g of solute: 400 parts
[1]; pH 4.11, monocalcium salt
  Solubility (mg/ml of solvent): 4.0 mg/mL
  Parts of solvent required per g of solute: 250 parts
[1]; pH 5.02, monocalcium salt
  Solubility (mg/ml of solvent): 3.3 mg/mL
  Parts of solvent required per g of solute: 300 parts
[1]; pH 6.27, monocalcium salt
  Parts of solvent required per g of solute: > 10,000** parts

## CC(C)CN(C[C@@H](OP(=O)([O-])[O-])[C@H](Cc1ccccc1)NC(=O)O[C@H]1CCOC1)S(=O)(=O)c1ccc(N)cc1.[Ca+2] [(3S)-tetrahydrofuran-3-yl (1S ,2R)-3-[[(4-aminophenyl)sulfonyl](isobutyl)amino]-1-benzyl-2-(phosphonooxy)propylcarbamate monocalcium salt, reference compound]
[2]; listed as Crystalline form I
  Hygroscopicity, % increase in mass: 11.62%

## CC(C)CN(C[C@@H](OP(=O)([O-])[O-])[C@H](Cc1ccccc1)NC(=O)O[C@H]1CCOC1)S(=O)(=O)c1ccc(N)cc1.[Ca+2] [Amorphous fosamprenavir calcium, (3S)-tetrahydrofuran-3-yl (1S ,2R)-3-[[(4-aminophenyl)sulfonyl](isobutyl)amino]-1-benzyl-2-(phosphonooxy)propylcarbamate monocalcium salt]
[1]; pH 1.47, monocalcium salt
  Solubility (mg/ml of solvent): 1.25 mg/mL
  Parts of solvent required per g of solute: 800 parts
[1]; pH 3.27, monocalcium salt
  Solubility (mg/ml of solvent): 10 mg/mL
  Parts of solvent required per g of solute: 100 parts
[1]; pH 4.11, monocalcium salt
  Parts of solvent required per g of solute: 150 parts
[1]; pH 5.02, monocalcium salt
  Solubility (mg/ml of solvent): 6.7 mg/mL
  Parts of solvent required per g of solute: 150 parts
[1]; pH 4.11, aqueous buffer, pH 4.11
  solubility: 6.7 mg/mL
[1]; pH 6.27, aqueous buffer, pH 6.27
  solubility: 0.1 mg/mL
[1]; pH of about 3 to about 5.5
  Volume of aqueous solution required for dissolving about 1 g: not more than 200 ml
[1]; relevant physiological pH range
  Solubility compared with crystalline form I of fosamprenavir calcium: superior
[2]
  Hygroscopicity in words: essentially non-hygroscopic
  Hygroscopicity, % increase in mass: 17.5%
[3]; listed as Example 2, monocalcium salt
  Change in XRPD pattern / conversion into crystalline form on storage: no change in the XRPD pattern was observed
[3]; monocalcium salt
  Change in XRPD pattern / conversion into crystalline form on storage: not converted into any crystalline form

## CC(C)CN(C[C@@H](OP(=O)([O-])[O-])[C@H](Cc1ccccc1)NC(=O)O[C@H]1CCOC1)S(=O)(=O)c1ccc(N)cc1.[Ca+2] [calcium salt, (3S)-tetrahydrofuran-3-yl (1S ,2R)-3-[[(4-aminophenyl)sulfonyl](isobutyl)amino]-1-benzyl-2-(phosphonooxy)propylcarbamate monocalcium salt]
[4]
  Solubility over the relevant physiological pH range, compared among forms: reduced solubility
